Laboratory results taken from patent publication EP0641797A1, “Cephem derivatives and antimicrobial agents containing the same” (KATAYAMA SEIYAKUSYO CO. Ltd., priority 1993, dated 1995).
Values after ≈ are worked out from the molar mass of the structure shown.

How the values were obtained:
Assay in all cases: MIC on standard strains, standard method of Japan Society of Chemotherapy
Assay type in all cases: cell-based
E. cloacae ATCC 13407 = conditions: Enterobacter cloacae, ATCC13407, E. cloacae ATCC 13407; read-out: MIC
Method: (§1) Antimicrobial activity of the compounds of the present invention were measured using CTM (cefotiam) and FMOX (flomoxef) as control drugs in accordance with the standard method of Japan Society of Chemotherapy. Of the 25 standard strains used in this test, Staphylococcus aureus 167 and Staphylococcus aureus 195 belong to MRSA.
(§2) In these tables, drugs tested are shown by the corresponding examples in which they were synthesized.

P. vulugaris OX-19 = tested on: P. vulugaris OX-19
Method: as §1, §2

S. epidemidis IAM 1296 = tested on: S. epidemidis IAM 1296
Method: as §1, §2

E. coli NHIJ JC-2 = conditions: Escherichia coli, NHIJJC2
Method: as §1, §2

P. mirabilis IFO 3849 = conditions: Proteus mirabilis, IFO3849, P. mirabilis IFO 3849; read-out: MIC
Method: as §1, §2

C. freundii ATCC 8090 = conditions: Citrobacter freundii, ATCC8090, C. freundii ATCC 8090; read-out: MIC
Method: as §1, §2

S. aureus 209p JC-1 = conditions: Staphylococcus aureus, 209P, read-out: MIC
Method: as §1, §2

E. coli CSH2(RK1) = conditions: Escherichia coli
Method: as §1, §2

S. aureus Smith = conditions: Staphylococcus aureus, read-out: MIC
Method: as §1, §2

S. aureus 167 = conditions: Staphylococcus aureus; S. aureus 167 (MRSA)
Method: as §1, §2

M. morganii IFO 3848 = conditions: Morganella morganii, IFO3848
Method: as §1, §2

S. marcescens IAM 1184 = conditions: Serratia marcescens, IAM1184, S. marcescens IAM 1184; read-out: MIC
Method: as §1, §2

B. subtilis ATCC 6633 = conditions: Bacillus subtilis, ATCC6633, B. subtilis ATCC 6633; read-out: MIC
Method: as §1, §2

E. cloacae Nek39 = conditions: Enterobacter cloacae, NEK39, E. cloacae Nek39; read-out: MIC
Method: as §1, §2

E. coli CSH2(RE45) = conditions: Escherichia coli
Method: as §1, §2

P. cepacia = conditions: Burkholderia cepacia, read-out: MIC
Method: as §1, §2

K. pneuminiae No. 42 = tested on: K. pneuminiae No. 42
Method: as §1, §2

A. faecalis ATCC 3750 = conditions: Alcaligenes faecalis, ATCC3750, A. faecalis ATCC 3750; read-out: MIC
Method: as §1, §2

A. calcoaceticos T59 = conditions: read-out: MIC
Method: as §1, §2

P. aeruginosa NCTC 10490 = conditions: Pseudomonas aeruginosa, NCTC10490, P. aeruginosa NCTC 10490; read-out: MIC
Method: as §1, §2

S. aureus 195 = conditions: Staphylococcus aureus; S. aureus 195 (MRSA)
Method: as §1, §2

P. aeruginosa AKR17 = conditions: Pseudomonas aeruginosa
Method: as §1, §2

S. marcescens No. 16-2 = conditions: Serratia marcescens, NO.162
Method: as §1, §2

M. luteus ATCC 9341 = conditions: Micrococcus luteus, ATCC9341
Method: as §1, §2

K. pneuminiae IFO 3317 = tested on: K. pneuminiae IFO 3317
Method: as §1, §2

SMILES	MIC (E. cloacae ATCC 13407) [µg/mL]	MIC (P. vulugaris OX-19) [µg/mL]	MIC (S. epidemidis IAM 1296) [µg/mL]	MIC (E. coli NHIJ JC-2) [µg/mL]	MIC (P. mirabilis IFO 3849) [µg/mL]	MIC (C. freundii ATCC 8090) [µg/mL]	MIC (S. aureus 209p JC-1) [µg/mL]	MIC (E. coli CSH2(RK1)) [µg/mL]	MIC (S. aureus Smith) [µg/mL]	MIC (S. aureus 167) [µg/mL]	MIC (M. morganii IFO 3848) [µg/mL]	MIC (S. marcescens IAM 1184) [µg/mL]	MIC (B. subtilis ATCC 6633) [µg/mL]	MIC (E. cloacae Nek39) [µg/mL]	MIC (E. coli CSH2(RE45)) [µg/mL]	MIC (P. cepacia) [µg/mL]	MIC (K. pneuminiae No. 42) [µg/mL]	MIC (A. faecalis ATCC 3750) [µg/mL]	MIC (A. calcoaceticos T59) [µg/mL]	MIC (P. aeruginosa NCTC 10490) [µg/mL]	further results
Nc1nc(/C(=N/O)C(=O)N[C@@H]2C(=O)N3C(C(=O)[O-])=C(C[n+]4ccc(-c5nccs5)cc4)CS[C@H]23)cs1 [Ex. 21, 7β-[2-(2-aminothiazol-4-yl)-2-syn-hydroxyiminoacetamido]-3-[4-(thiazol-2-yl)pyridinio]methyl-3-cephem-4-carboxylate]	1.56 (≈ 2.87 µM)	0.1 (≈ 0.184 µM)	0.1 (≈ 0.184 µM)	0.1 (≈ 0.184 µM)	0.2 (≈ 0.368 µM)	0.1 (≈ 0.184 µM)	0.2 (≈ 0.368 µM)	0.2 (≈ 0.368 µM)	0.39 (≈ 0.717 µM)	3.13 (≈ 5.76 µM)	0.05 (≈ 0.092 µM)	0.1 (≈ 0.184 µM)	0.2 (≈ 0.368 µM)	50 (≈ 92 µM)	0.1 (≈ 0.184 µM)	> 100	0.2 (≈ 0.368 µM)	0.78 (≈ 1.43 µM)	12.5 (≈ 23 µM)	6.25 (≈ 11.5 µM)	MIC (S. aureus 195): 1.56 µg/mL (≈ 2.87 µM); MIC (P. aeruginosa AKR17): > 100 µg/mL; MIC (S. marcescens No. 16-2): 50 µg/mL (≈ 92 µM); MIC (M. luteus ATCC 9341): 0.025 µg/mL (≈ 0.046 µM); MIC (K. pneuminiae IFO 3317): 0.1 µg/mL (≈ 0.184 µM)
NC(=O)Nc1ccc[n+](CC2=C(C(=O)[O-])N3C(=O)[C@@H](NC(=O)/C(=N\O)c4nsc(N)n4)[C@H]3SC2)c1 [Ex. 2, 7β-[2-(5-amino-1,2,4-thiadiazol-3-yl)-2-syn-hydroxyiminoacetamido]-3-(3-ureidopyridinio)methyl-3-cephem-4-carboxylate]	6.25 (≈ 12 µM)	1.56 (≈ 3 µM)	0.2 (≈ 0.385 µM)	0.78 (≈ 1.5 µM)	1.56 (≈ 3 µM)	0.78 (≈ 1.5 µM)	0.39 (≈ 0.751 µM)	1.56 (≈ 3 µM)	0.78 (≈ 1.5 µM)	6.25 (≈ 12 µM)	0.78 (≈ 1.5 µM)	0.39 (≈ 0.751 µM)	0.39 (≈ 0.751 µM)	100 (≈ 192 µM)	0.78 (≈ 1.5 µM)	> 100	0.78 (≈ 1.5 µM)	3.13 (≈ 6.02 µM)	1.56 (≈ 3 µM)	0.78 (≈ 1.5 µM)	MIC (S. aureus 195): 3.13 µg/mL (≈ 6.02 µM); MIC (P. aeruginosa AKR17): > 100 µg/mL; MIC (S. marcescens No. 16-2): 100 µg/mL (≈ 192 µM); MIC (M. luteus ATCC 9341): 0.05 µg/mL (≈ 0.0962 µM); MIC (K. pneuminiae IFO 3317): 0.39 µg/mL (≈ 0.751 µM)
Nc1nc(/C(=N/O)C(=O)N[C@@H]2C(=O)N3C(C(=O)[O-])=C(C[n+]4ccc(-c5cncs5)cc4)CS[C@H]23)cs1 [Ex. 22, 7β-[2-(2-aminothiazol-4-yl)-2-syn-hydroxyiminoacetamido]-3-[4-(thiazol-5-yl)pyridinio]methyl-3-cephem-4-carboxylate]	0.78 (≈ 1.43 µM)	0.1 (≈ 0.184 µM)	0.1 (≈ 0.184 µM)	0.1 (≈ 0.184 µM)	0.1 (≈ 0.184 µM)	0.1 (≈ 0.184 µM)	0.2 (≈ 0.368 µM)	0.2 (≈ 0.368 µM)	0.2 (≈ 0.368 µM)	1.56 (≈ 2.87 µM)	0.025 (≈ 0.046 µM)	0.1 (≈ 0.184 µM)	0.2 (≈ 0.368 µM)	25 (≈ 46 µM)	0.1 (≈ 0.184 µM)	> 100	0.1 (≈ 0.184 µM)	1.56 (≈ 2.87 µM)	12.5 (≈ 23 µM)	3.13 (≈ 5.76 µM)	MIC (S. aureus 195): 0.78 µg/mL (≈ 1.43 µM); MIC (P. aeruginosa AKR17): > 100 µg/mL; MIC (S. marcescens No. 16-2): 25 µg/mL (≈ 46 µM); MIC (M. luteus ATCC 9341): 0.025 µg/mL (≈ 0.046 µM); MIC (K. pneuminiae IFO 3317): 0.05 µg/mL (≈ 0.092 µM)
Nc1nc(-c2ccc[n+](CC3=C(C(=O)[O-])N4C(=O)[C@@H](NC(=O)/C(=N\O)c5csc(N)n5)[C@H]4SC3)c2)no1 [Ex. 14, 7β-[2-(2-aminothiazol-4-yl)-2-syn-hydroxyiminoacetamido)-3-[3-(5-amino-1,2,4-oxadiazol-3-yl)pyridinio]methyl-3-cephem-4-carboxylate]	3.13 (≈ 5.76 µM)	0.39 (≈ 0.718 µM)	0.1 (≈ 0.184 µM)	0.39 (≈ 0.718 µM)	0.39 (≈ 0.718 µM)	0.2 (≈ 0.368 µM)	0.2 (≈ 0.368 µM)	0.78 (≈ 1.44 µM)	0.39 (≈ 0.718 µM)	12.5 (≈ 23 µM)	0.2 (≈ 0.368 µM)	0.78 (≈ 1.44 µM)	0.2 (≈ 0.368 µM)	100 (≈ 184 µM)	0.39 (≈ 0.718 µM)	> 100	0.78 (≈ 1.44 µM)	3.13 (≈ 5.76 µM)	12.5 (≈ 23 µM)	3.13 (≈ 5.76 µM)	MIC (S. aureus 195): 6.25 µg/mL (≈ 11.5 µM); MIC (P. aeruginosa AKR17): > 100 µg/mL; MIC (S. marcescens No. 16-2): > 100 µg/mL; MIC (M. luteus ATCC 9341): 0.05 µg/mL (≈ 0.092 µM); MIC (K. pneuminiae IFO 3317): 0.39 µg/mL (≈ 0.718 µM)
